For series [1], the system named is human telomeric sequence Telo G4. Put plainly: FRET melting assay, Telo. It counts as binding. To be noted: 50:1. As to the method: (§1) To evaluate stabilizing properties of the ligands in a complex with oligodeoxyribonucleotides (ODNs) melting with fluorescence registration was used. ODN (0.5 μM) (Table 1), labeled with 6-carboxyfluorescein (FAM) and 6-carboxytetramethylrhodamine (TAMRA) at the 5′- and 3′-end, respectively, were folded in lithium cacodylate buffer (10 mM, pH 7.4) with 100 mM KCl by heating at 95 °C for 5 min and gradually cooling to r.t. GFP chromophore analogs (5 mM solution in DMSO) were diluted with the same buffer to the final concentration of 25 μM and mixed with an equal volume of 0.5 μM ODN solution resulting in a molar ratio of 50:1 (total volume was 50 μL). For the titration experiments molar ratios of 20:1 and 2:1 were used. Samples were analyzed using DTprime qPCR system (DNA-Technology LLC, Moscow, Russia). Fluorescence was registered by detection of FAM emission at 520 nm upon excitation at 495 nm in the temperature range of 30–95 °C with 1 °C/min gradient. Tm was determined using the instrument software and ΔTm was calculated relative to ODN Tm in a buffer solution containing 0.25% (v/v) DMSO. The primary and secondary screening were carried out in singlicate and triplicate, respectively.
(§2) Initially we screened an in-house library of 440 synthetic GFP chromophore analogues for interaction with HIV-1 LTR-III sequence, which modulates HIV-1 promoter activity, using high-throughput screening (HTS) FRET melting assay (Table S1). […] We selected 11 compounds (Figure 2A), displaying stabilization in the range of 2.4–7.8 °C, and evaluated their ability to stabilize other G4-forming sequences, including human telomeric sequence Telo (one of the most common G4 structures in the human genome, having two conformations, Hybrid-1 and Hybrid-2 [36]) and model G4 […] (the G-rich Pu39 region of the P1 promoter of the oncogene BCL-2, an apoptosis regulator [37] with polymorphic conformational structure), as well as double stranded oligonucleotide (duplex) control sequence (Figure 2B, Table S2).

The subject of series [2] is HIV-1 strain NL4-3 in MT4 cells. Kind of series: Cytopathic effect inhibition test. It counts as cell-based. The note with it: HIV-1 NL4-3, MT4 cells. Here is the method:
Human T cell leukemia (MT4) cell line was maintained in RPMI-1640 (“Chumakov FSC R&D IBP RAS”, Moscow, Russia) with 10% of fetal bovine serum (FBS, Invitrogen, Waltham, MA, USA), L-glutamine and gentamicin. Green monkey kidney (Vero, Beach, FL, USA) cell line was maintained in 2 × Eagle MEM (“Chumakov FSC R&D IBP RAS”, Russia) with 5% FBS with L-glutamine, penicillin and streptomycin. Cell cultures were incubated in the present of 5% CO2 at 37 °C. HIV-1 strain NL4-3 was obtained via cell transfection with pNL4-3 3 (ARP2006, NIBSC, Potters Bar, UK).
Eight two-fold dilutions of stock solutions of the compounds in two replicates were prepared in RPMI-1640 (“Chumakov FSC R&D IBP RAS”, Russia). Compound dilutions were mixed with equal volumes of the virus suspension containing 100 CCID50 (50% tissue culture infectious dose). Control cells were treated with the same sequential concentrations of DMSO as in compound dilutions. Then, the MT4 cell suspension (approx. 2 × 10^4 cells per well) in RPMI-1640 containing 10% FBS (Invitrogen, South America) was added to experimental mixtures. A final concentration series started from 25 μM. Each experiment contained virus dose titration in the inoculate to assure the acceptable dose-range. After a nine-day incubation (5% CO2, at 37 °C), cytopathic effect (CPE) was visually accessed via microscope. EC50 values were calculated according to the Karber method. All experimental procedures were performed in two replicates and were repeated two to four times. Mean and SD were calculated with OriginPro 8 (OriginLab, St. Louis, MO, USA).

Series [3] relates to HIV-1 LTR-III G-quadruplex (FAM/TAMRA-labeled LTR-III). Put plainly: FRET melting assay, LTR-III G4. The series is classed as binding. To be noted: for LTR III stabilization: Figure 7, stabilization group; for LTR-III (average): Table S12, average stabilization. Summed up:
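Melting is followed by FAM fluorescence (ex 495/em 520 nm) while heating at 1 °C/min from 30 to 95 °C. Labelled ODN at 0.5 μM, pre-annealed in 10 mM Li cacodylate, 100 mM KCl, pH 7.4, mixed with ligand at 50:1 (25 μM), or 20:1 and 2:1 for titration. ΔTm is relative to the 0.25% DMSO buffer control.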

Series [4] concerns dsDNA (double stranded control sequence). Put plainly: FRET melting assay, duplex control. The series is classed as binding. To be noted: 50:1. Here is the method:
as §1, §2

Another series in a line: Cytotoxicity test. It counts as cell-based. The note with it: human, MT4 cells (human T cell leukemia), Figure 7. Here is the method: (§3) Green monkey kidney (Vero, Beach, FL, USA) cell line was maintained in 2 × Eagle MEM (“Chumakov FSC R&D IBP RAS”, Russia) with 5% FBS with L-glutamine, penicillin and streptomycin. […] HIV-1 strain NL4-3 was obtained via cell transfection with pNL4-3 3 (ARP2006, NIBSC, Potters Bar, UK).
(§4) MT4 cell suspensions were added to the wells with compound dilutions and DMSO control (approx. 2 × 10^4 cells per well). […] All experimental procedures were performed in two replicates and were repeated two to four times. Mean and SD were calculated with OriginPro 8 (OriginLab, St. Louis, MO, USA).

The test system of the next series is MT4 cells. Put plainly: Cytotoxicity test. The series is classed as cell-based. The note with it: Table S12, nine days. Here is the method: as §3, §4
In series [5] the test system is Pu39 G4 (G-rich region of the P1 promoter of BCL-2). Put plainly: FRET melting assay, Pu39. The series is classed as binding, human. To be noted: 50:1. Here is the method: as §1, §2
The subject of another series is LTR-III G4. Kind of series: NMR titration of LTR-III. The series is classed as binding, HIV-1. To be noted: for interaction with LTR-III by NMR titration (selective signal attenuation): 50 μM LTR-III, 1D 1H NMR. As to the method: All NMR spectra were acquired on a Bruker Avance III 800 MHz spectrometer equipped with a cryoprobe. Titration of 50 μM LTR-III samples (70 mM KCl, 20 mM potassium phosphate buffer, pH 7.0) with 2 mM ZS260.1 and N979 ligands dissolved in DMSO was performed. 1D ^1H NMR spectra were used to track the changes during titration. ^1H-^13C HSQC and HMBC at 35 °C were used to transfer the assignment of H6/C6 and H8/C8 signals from previously obtained assignment. To identify the LTR-III residues that are most influenced by addition of ZS260.1 ligand, the intensities of cross-peaks in the ^1H-^13C HSQC spectra measured with and without added ligand were compared. The H6/C6 and H8/C8 cross-peak intensities were measured at molar ratio of LTR-III to ZS260.1 of 5:1 (35 °C, 0.5 mM LTR-III G4).
The ligand binding processes are probably in intermediate to fast regime on the NMR timescale. Therefore, the resonances of residues that are close to the ligand binding site (s) become broadened and attenuated (intermediate exchange regime).
To determine affinity of the compound ZS260.1 to LTR-III G4 we analyzed changes in H8 chemical shift of G8 residue in 1D ^1H NMR spectra. […] The titration data were successfully approximated by simple chemical reaction A + B = AB, that implies one to one stoichiometry of binding that is consistent with literature data (Suppl. S8). The dissociation constant for the LTR-III/ZS260.1 complex (Kd) was on the order of 3 μM.

Series [6] has as its system Telo (DNA, G4) AGGGTTAGGGTTAGGGTTAGGG
Kind of series: FRET melting. To be noted: 100 mM KCl; 10 mM lithium cacodylate pH 7.4, 0.25% DMSO; 12.5 μM compound, 0.25 μM DNA (50:1).

Series [7] deals with dsDNA (DNA, duplex) CTATAGCGCGCTATAG
Kind of series: FRET melting. The note with it: 100 mM KCl; 10 mM lithium cacodylate pH 7.4, 0.25% DMSO; 12.5 μM compound, 0.25 μM DNA (50:1).

The mark [8] stands for this setting: Table S5, newly synthesized compounds.
[9] abbreviates: Human immunodeficiency virus 1, NL43, 216 h, Table S12, CPE, nine-day incubation, read-out: EC50.
[10] abbreviates: Human immunodeficiency virus 1, NL43, Figure 7, read-out: Antiviral activity EC50 (HIV).
Where [11] appears, read: Table S3 primary screening of newly synthesized analogs, 50:1.
The mark [12] stands for this setting: Table S1 primary screening, ligand:ODN 50:1, singlicate.
The mark [13] stands for this setting: Table S12, CPE, nine-day incubation.
Setting [14] is: Table S2, primary screening lead compounds.

Molecules are shown by their SMILES. Read-outs that look alike come from different tables or passages of the source. Where only a bound is given, the exact number is not on record here.

One may read the EC50 as the midpoint of the concentration-response curve. One may read the CC50 as the concentration at which the toxic effect on the cells reaches its halfway point. Read a low CC50 as harm at low concentration. In the case of `COc1cc(/C=C2N=C(/C=C/C=C/c3ccc(N(C)C)cc3)N(C)C\2=O)cc(OC)c1O` [N1195], the “ΔTm Telo” value in series [1] (setting [8]) was 0.9±0.3 °C. For the same molecule, the results for the half-maximal effective concentration (EC50) in [2] (setting [9]) and in [2] (setting [10]) were 3780 ± 910 nM and 3800 ± 900 nM, respectively. The “LTR III stabilization” value in series [3] is above 3 °C. Further, in series [3] (setting [11]), the “LTR-III ΔTm” value is 4.2 °C. Moreover, the “LTR-III (average)” value in [3] was 4,2 °C. Further, the “ΔTm Duplex” value in series [4] (setting [8]) was found to be 0.1±0.1 °C. In “Cytotoxicity test”, the midpoint of cytotoxicity, the CC50 at 9 days, lay at 6000 ± 3000 nM. Further, the “СС50 (MT4)” value with MT4 cells worked out at 5.9 ± 2.6 µM. The “ΔTm Pu39” value in series [5] (setting [8]) is 1.8±0.1 °C.
As for `COc1cc(/C=C2\N=C(C)N(C)C2=O)cc(OC)c1O` [N 979], the “LTR-III ΔTm” value in series [3] (setting [12]) is -0.2 °C; in series [3] (Table S1 primary screening, ligand:ODN 50:1, singlicate, listed as N979) it was “non-stabilizing”. The “interaction with LTR-III by NMR titration (selective signal attenuation)” value with LTR-III G4 is given as “interact with the LTR-III molecule”.
With `COc1c(O)ccc(/C=C2N=C(/C=C/c3cc(Cl)nc(Cl)c3)N(C)C\2=O)c1OC` [N1198], in [1] (setting [8]), the “ΔTm Telo” value worked out at 0.9±0.2 °C. Moreover, the figures for the half-maximal effective concentration (EC50) in series [2] (setting [9]), in series [2] (setting [10]) and in [2] (setting [13]) were 1780 ± 380 nM, 1800 ± 400 nM and “micromolar range”, respectively. The “LTR III stabilization” value in [3] is above 3 °C. Also, the “LTR-III ΔTm” value in series [3] (setting [11]) worked out at 6.5 °C. Moreover, in series [3], the “LTR-III (average)” value was 6,5 °C. Moreover, the “ΔTm Duplex” value in series [4] (setting [8]) was found to be 0±0.1 °C. Also, in “Cytotoxicity test”, the cytotoxic concentration (CC50) at 9 days amounted to 3000 ± 1000 nM. Besides, in the series with MT4 cells, the “СС50 (MT4)” value was 2.8 ± 1.1 µM. In addition, in series [5] (setting [8]), the “ΔTm Pu39” value turned out to be 0.1±0.1 °C.
As for `COc1c(O)ccc(/C=C2N=C(/C=C/c3ccncc3)N(C)C\2=O)c1OC` [N 1068.2], the “ΔTm Telo” value in series [1] (setting [14]) was found to be 1.2±0.2 °C. Further, the concentration for a half-maximal effect (EC50) in series [2] (setting [9]) is 1780 ± 380 nM; in series [2] (setting [10]), 1800 ± 400 nM; in [2] (setting [13]), “micromolar range”. Besides, the “LTR III stabilization” value in series [3] is above 3 °C. Moreover, the “LTR-III ΔTm” value in series [3] (setting [12]) turned out to be 7.1 °C. In series [3], the “LTR-III (average)” value was 6,9 °C. Also, the “ΔTm Duplex” value in [4] (setting [14]) amounted to 0.1±0.04 °C. In “Cytotoxicity test”, this molecule had a half-maximal cytotoxic concentration (CC50) at 9 days of 3000 ± 1000 nM. The “СС50 (MT4)” value in the series on MT4 cells is 3.0 ± 1.0 µM. Further, the “ΔTm Pu39” value in series [5] (setting [14]) turned out to be 0±0.4 °C.
As usually defined, the ΔTm is the change in melting temperature against a reference sample. On to `COc1ccc(/C=C/C=C/C2=NC(=C\c3ccc(O)cc3OC)/C(=O)N2C)cc1`, for which the values for the thermal shift (ΔTm) in series [6] and in series [7] were 3.9±0.1 °C and -0.1±0.04 °C, respectively.
For the molecule `COc1cc(/C=C2N=C(/C=C/c3cc(Br)c(O)c(Br)c3)N(C)C\2=O)cc(OC)c1O` [ZS 260.1], the “ΔTm Telo” value in [1] (setting [14]) is 0.7±0.2 °C. Also, the EC50 was 3780 ± 910 nM in series [2] (setting [9]), 3800 ± 900 nM in series [2] (setting [10]) and “micromolar range” in series [2] (setting [13]). The “LTR III stabilization” value in [3] was above 3 °C. Further, the “LTR-III ΔTm” value in [3] (setting [12]) came out at 7.8 °C. Also, the “LTR-III (average)” value in [3] is 8,35 °C. The ΔTm in [6] was 0.7±0.2 °C; in series [7], 0.1±0.09 °C. Also, in the series with LTR-III G4, the “interaction with LTR-III by NMR titration (selective signal attenuation)” value is listed as “interact with the LTR-III molecule”. Besides, the Kd at LTR-III G4 (H8 chemical shift of G8 in 1D 1H NMR, 1:1 binding model, read-out: dissociation constant for the LTR-III/ZS260.1 complex (Kd)) was around 3000 nM. Besides, the “ΔTm Duplex” value in [4] (setting [14]) turned out to be 0.1±0.09 °C. Besides, the midpoint of cytotoxicity in “Cytotoxicity test”, the CC50 at 9 days, lay at 4100 ± 600 nM. For the same molecule, in the series with MT4 cells, the “СС50 (MT4)” value was 4.1 ± 0.6 µM. Also, the “ΔTm Pu39” value in [5] (setting [14]) worked out at 0.9±0.6 °C.

These data come from PMC8533149 (Biomolecules, 2021).
